According to patent publication US6610665B1 (Smithkline Beecham Corporation, priority 1998, dated 2003):
Counter-ions that a name gives are not always drawn.

Columns and labels:
Type in all cases: cell-based
Conditions in all cases: ratio to NECA
adenosine 2a receptor = molecular target: T1, adenosine 2a receptor (Homo sapiens, UniProt P29274); test: Agonist activity, CHO cells transfected with human adenosine receptor and CRE-SPAP reporter; basal cAMP (A2a)
T1 construct: expressed in transfected cells; host or cells: CHO cells
T1 sequence (P29274 whole entry): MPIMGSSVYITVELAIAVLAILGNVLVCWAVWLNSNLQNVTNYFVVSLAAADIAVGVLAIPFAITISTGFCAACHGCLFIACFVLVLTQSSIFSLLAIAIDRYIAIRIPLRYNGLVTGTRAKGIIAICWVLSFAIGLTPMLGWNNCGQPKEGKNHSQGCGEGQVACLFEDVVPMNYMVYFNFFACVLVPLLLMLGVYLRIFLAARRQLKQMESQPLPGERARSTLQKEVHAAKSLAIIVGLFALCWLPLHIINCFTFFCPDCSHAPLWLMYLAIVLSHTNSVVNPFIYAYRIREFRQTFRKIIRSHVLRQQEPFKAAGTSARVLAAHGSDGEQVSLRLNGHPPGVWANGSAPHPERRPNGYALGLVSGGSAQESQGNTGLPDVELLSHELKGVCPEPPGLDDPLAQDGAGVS
Method: (§1) (1) Agonist activity against adenosine 2a, adenosine 1 and adenosine 3 receptor subtypes.
(§2) Agonist selectivity of compounds against other human adenosine receptors is determined using Chinese hamster ovary (CHO) cells transfected with the gene for the relevant human adenosine receptor following a method based on that of Castanon and Spevak, 1994. The CHO cells are also transfected with cyclic AMP response elements promoting the gene for secreted placental alkaline phosphatase (SPAP) (Wood, 1995). The effect of test compounds may be determined by their effects on basal levels of CAMP (A2a) or on forskolin-enhanced cAMP (A1 and A3) as reflected by changes in levels of SPAP. EC50 values for compounds may then be determined as a ratio to that of the non-selective agonist N-ethyl carboxamide adenosine (NECA).

adenosine 3 receptor = molecular target: T2, adenosine 3 receptor (Homo sapiens, UniProt P0DMS8); test: Agonist activity, CHO cells transfected with human adenosine receptor and CRE-SPAP reporter; forskolin-enhanced cAMP (A3)
T2 construct: expressed in transfected cells; host or cells: CHO cells
T2 sequence (P0DMS8 1-318): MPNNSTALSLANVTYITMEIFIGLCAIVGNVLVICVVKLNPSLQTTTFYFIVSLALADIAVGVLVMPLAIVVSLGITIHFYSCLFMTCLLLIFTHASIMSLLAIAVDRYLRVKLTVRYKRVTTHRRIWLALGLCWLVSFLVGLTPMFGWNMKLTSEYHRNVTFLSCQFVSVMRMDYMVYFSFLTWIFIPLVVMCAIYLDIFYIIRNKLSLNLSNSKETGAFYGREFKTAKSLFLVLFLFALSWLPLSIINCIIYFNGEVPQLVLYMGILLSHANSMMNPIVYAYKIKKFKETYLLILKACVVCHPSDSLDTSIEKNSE
Method: as §1, §2

adenosine 1 receptor = molecular target: T3, adenosine 1 receptor (Homo sapiens, UniProt P30542); test: Agonist activity, CHO cells transfected with human adenosine receptor and CRE-SPAP reporter; forskolin-enhanced cAMP (A1)
T3 construct: expressed in transfected cells; host or cells: CHO cells
T3 sequence (P30542 1-326): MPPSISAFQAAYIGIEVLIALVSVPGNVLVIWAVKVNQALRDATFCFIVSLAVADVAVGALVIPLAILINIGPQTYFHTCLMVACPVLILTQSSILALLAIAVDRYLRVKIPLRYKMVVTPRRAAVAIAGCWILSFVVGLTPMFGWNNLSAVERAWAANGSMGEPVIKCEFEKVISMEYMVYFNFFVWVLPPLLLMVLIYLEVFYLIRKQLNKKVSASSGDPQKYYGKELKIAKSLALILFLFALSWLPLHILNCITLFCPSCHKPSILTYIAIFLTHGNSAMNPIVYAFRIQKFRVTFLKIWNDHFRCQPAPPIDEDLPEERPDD
Method: as §1, §2

[1] = * data are minimum values since preparation was found, after testing, to contain an inactive impurity

| SMILES | A2a, EC50 as a ratio of that of NECA (adenosine 2a receptor; CHO cells, SPAP readout) | A3, EC50 as a ratio of that of NECA (adenosine 3 receptor; CHO cells, SPAP readout) | A1, EC50 as a ratio of that of NECA (adenosine 1 receptor; CHO cells, SPAP readout) | A2a, EC50 as a ratio of that of NECA (adenosine 2a receptor; [1]) | A3, EC50 as a ratio of that of NECA (adenosine 3 receptor; [1]) | A1, EC50 as a ratio of that of NECA (adenosine 1 receptor; [1]) |
| --- | --- | --- | --- | --- | --- | --- |
| CCC(CC)Nc1nc(N[C@H]2CCC[C@@H]2O)nc2c1ncn2[C@@H]1O[C@H](c2nc(C)no2)[C@@H](O)[C@H]1O.O=CO [Example 24, (2R,3R,4S,5S)-2-[6-(1-Ethyl-propylamino)-2-(2S-hydroxy-cyclopent-(S)-ylamino)-purin-9-yl]-5-(3-methyl-[1,2,4]oxadiazol-5-yl)-tetrahydro-furan-3,4-diol formate] | 18.13 | >284 | >5264 |  |  |  |
| CCc1noc(C2OC(n3cnc4c(NCCC5CCCCC5)nc(NCCc5cn(C)cn5)nc43)C(O)C2O)n1.O=CO.O=CO [Example 47, (2R,3R,4S,5S)-2-{6-(2-cyclohexylethylamino)-2-[2-(1-methyl-1H-imidazol4-yl)ethylamino]-purin-9-yl}-5-(3-ethyl-[1,2,4]oxadiazol-5-yl)-tetrahydro-furan-3,4-diol diformate] | 6.93 | >165 | 4993.28 |  |  |  |
| CCc1noc([C@H]2O[C@@H](n3cnc4c(NCC(c5ccccc5)c5ccccc5)nc(NCCc5cn(C)cn5)nc43)[C@H](O)[C@@H]2O)n1.O=C(O)C(F)F.O=C(O)C(F)F [Example 2] | 0.64 | >197 | 1823 |  |  |  |
| CCc1noc([C@H]2O[C@@H](n3cnc4c(NCC(c5ccccc5)c5ccccc5)nc(NCCN5CCOCC5)nc43)[C@H](O)[C@@H]2O)n1.O=CO [Example 31, (2R,3R,4S,5S)-2-[6-(2,2-Diphenyl-ethylamino)-2-(2-morpholin-4-yl-ethylamino)-purin-9-yl]-5-(3-ethyl-[1,2,4]oxadiazol-5-yl)-tetrahydro-furan-3,4-diol formate] | 30.6 | >262 | 6452 |  |  |  |
| Cc1noc([C@H]2O[C@@H](n3cnc4c(N)nc(NC5CCCC5)nc43)[C@H](O)[C@@H]2O)n1.O=CO [Example 11, (2R,3R,4S,5S)-2-(6-Amino-2-cyclopentylamino-purin-9-yl)-5-(3-methyl-[1,2,4]oxadiazol-5-yl)-tetrahydro-furan-3,4-diol formate] |  |  |  | 6.66 | >266 | 145.5 |
| CCc1noc(C2OC(n3cnc4c(NCC(c5ccccc5)c5ccccc5)nc(NCCN5CCCC5)nc43)C(O)C2O)n1.O=CO.O=CO (stereo not drawn) [Example 39] | 30.21 | >130 | 4505.4 |  |  |  |
| CCC(CC)Nc1nc(NC2CCNC2)nc2c1ncn2C1OC(c2nc(C)no2)C(O)C1O [Example 26, (2R,3R,4S,5S)-2-[6-(1-Ethyl-propylamino)-2-(pyrrolidin-3R-ylamino)-purin-9-yl]-5-(3-methyl-[1,2,4]oxadiazol-5-yl)-tetrahydro-furan-3,4-diol formate] |  |  |  | 5.18 | >284 | >5264 |
| Cc1noc([C@H]2O[C@@H](n3cnc4c(NCC(c5ccccc5)c5ccccc5)nc(NCCc5cn(C)cn5)nc43)[C@H](O)[C@@H]2O)n1.O=C(O)C(F)(F)F.O=C(O)C(F)(F)F [Example 1] | 1.19 | >197 | 1306 |  |  |  |
| CCc1noc(C2OC(n3cnc4c(NCC(c5ccccc5)c5ccccc5)nc(NC5CCN(Cc6ccccc6)C5)nc43)C(O)C2O)n1 [Example 45, (2R,3R,4S,5S)-2-[2-(1-Benzyl-pyrrolidin-3S-ylamino)-6-(2,2-diphenyl-ethylamino)-purin-9-yl]-5-(3-ethyl-[1,2,4]oxadiazol-5-yl)-tetrahydro-furan-3,4-diol diformate] | 29.82 | >165 | >3738.84 |  |  |  |
| CCC(CC)Nc1nc(NCCc2ccccn2)nc2c1ncn2[C@@H]1O[C@H](c2nc(C3CC3)no2)[C@@H](O)[C@H]1O.O=CO.O=CO [Example 37] | 49.45 | >87 | >10402 |  |  |  |
| CCc1noc([C@H]2O[C@@H](n3cnc4c(NCC(c5ccccc5)c5ccccc5)nc(NCCNc5ccccn5)nc43)[C@H](O)[C@@H]2O)n1.O=CO.O=CO [Example 40] | 4.89 | >130 | >=3311.7 |  |  |  |
| CCc1noc([C@H]2O[C@@H](n3cnc4c(NC(CC)CC)nc(NCCc5cn(C)cn5)nc43)[C@H](O)[C@@H]2O)n1.O=CO [Example 13, (2S,3S,4R,5R)-2-(3-Ethyl-[1,2,4]oxadiazol-5-yl)-5-(6-(1-ethyl-propylamino)-2-[2-(1-methyl-1H-imidazol-4-yl)-ethylamino]-purin-9-yl}tetrahydro-furan-3,4-diol formate] | 0.61 | >289 | >=4370 |  |  |  |
| CCc1noc([C@H]2O[C@@H](n3cnc4c(NCC(c5ccccc5)c5ccccc5)nc(NCCO)nc43)[C@H](O)[C@@H]2O)n1.O=CO [Example 43, (2R,3R,4S,5S)-2-[6-(2,2-Diphenyl-ethylamino)-2-(2-hydroxy-ethylamino)-purin-9-yl]-5-(3-ethyl-[1,2,4]oxadiazol-5-yl)-tetrahydro-furan-3,4-diol formate] | 6.85 | >130 | 1367.6 |  |  |  |
| CCc1noc([C@H]2O[C@@H](n3cnc4c(NC(CC)CC)nc(NCCN5CCCCC5)nc43)[C@H](O)[C@@H]2O)n1.O=CO [Example 20, (2S,3S,4R,5R)-2-(3-Ethyl-[1,2,4]oxadiazol-5-yl)-5-[6-(1-ethyl-propylamino)-2-(2-piperidin-1-yl-ethylamino)-purin-9-yl]-tetrahydro-furan-3,4-diol formate] |  |  |  | 17.08 | >694 | >=1853 |
| CCc1noc(C2OC(n3cnc4c(NC(CC)CC)nc(NC5CCNC5)nc43)C(O)C2O)n1 [Example 27, (2S,3S,4R,5R)-2-(3-Ethyl-[1,2,4]oxadiazol-5-yl)-5-[6-(1-ethyl-propylamino)-2-(pyrrolidin-3R-ylamino)-purin-9-yl]-tetrahydro-furan-3,4-diol formate] |  |  |  | 10.5 | >284 | 263.14 |
| CCc1noc([C@H]2O[C@@H](n3cnc4c(NC(CC)CC)nc(N[C@H]5CCC[C@@H]5O)nc43)[C@H](O)[C@@H]2O)n1.O=CO [Example 25, (2S,3S,4R,5R)-2-(3-Ethyl-[1,2,4]oxadiazol-5-yl)-5-[6-(1-ethyl-propylamino)-2-(2S-hydroxy-cyclopent-(S)-ylamino)-purin-9-yl]-tetrahydro-furan-3,4-diol formate] | 19.35 | >163 | 515.35 |  |  |  |
| CCc1noc([C@H]2O[C@@H](n3cnc4c(NC(CC)CC)nc(NCCN5CCOCC5)nc43)[C@H](O)[C@@H]2O)n1.O=CO [Example 19, (2S,3S,4R,5R)-2-(3-Ethyl-[1,2,4]oxadiazol-5-yl)-5-[6-(1-ethyl-propylamino)-2-(2-morpholin-4-yl-ethylamino)-purin-9-yl]-tetrahydro-furan-3,4-diol formate] |  |  |  | 34.52 | >694 | >5860 |
| CCc1noc(C2OC(n3cnc4c(N)nc(NCCc5ccccn5)nc43)C(O)C2O)n1.O=CO.O=CO (stereo not drawn) [Example 8] |  |  |  | 14.05 | >215 | >=3865 |
